Publication PMC3672506, “A useful EGFR-TK ligand for tumor diagnosis with SPECT: development of radioiodinated 6-(3-morpholinopropoxy)-7-ethoxy-4-(3′-iodophenoxy)quinazoline” (Annals of Nuclear Medicine, 2013)
Read-outs that look alike come from different tables or passages of the source.

Legend:
[1] = biological target: EGFR-TK in A431 cell membranes (Homo sapiens, UniProt P00533); assay type: binding
Method: (§1) Assays were carried out as described in the previous section. Crude P2 membrane fractions (A431or NALM6, 0.1 mg of protein, 10 μL) and [^125I]PYK (1–300 nM, 100 μL, 0.74 kBq) were used. […] Specific binding was defined as the difference between the total and non-specific binding. Scatchard plot analysis of the saturation binding data was used to determine the equilibrium dissociation constant (K d) and the maximal number of binding sites (B max).
(§2) The crude P2 membrane fraction from A431 or NAlM6 cells were used in further binding experiments for pharmacological characterization. […] While, in the NALM6 as a negative-EGFR leukemia cell line, [^125I]PYK binding to cell membranes was undetectable.

[2] = system: NALM6 cell membranes; assay type: binding; details: NALM6, negative-EGFR leukemia cell line
Method: as §1, §2

[3] = system: A431 tumor; experiment: SPECT/CT imaging of A431 tumor-bearing mice; assay type: in vivo; details: 24 h after injection
Method: The mice underwent SPECT/CT studies when A431 tumors had grown to optimal size (approximately 2 weeks after inoculation). ^125I gamma camera imaging and image processing were performed using a small-animal imaging system with pinhole collimation (aperture diameter = 1 mm, focal length = 9 cm) and a 15- to 45 keV photo peak energy window (PET/SPECT/CT FX system, Gamma Medica Ideas). […] 24 h after injection, SPECT scans were performed at 64 projections over 360° (ROR = 4.5 cm, 60 s/projection). Reconstructed data from SPECT and CT were visualized and coregistered using AMIRA 3.1.
[^125I]PYK-SPECT images of tumors were very clear without interference from radioactivity in peripheral organs.

[4] = system: A431 tumor; experiment: Tumor uptake of radioiodinated ligands in A431 tumor-bearing mice; assay type: in vivo, balb/c nude mice; details: for accumulation in tumors: i.v.
Method: A suspension of 1 × 10^7 A431 cells in 0.1 mL of medium was inoculated subcutaneously in male balb/c nude mice (4 weeks old, 20–25 g, n = 3). After approximately 2 weeks, when the solid tumor had grown to optimal size, the mice were used for tumor uptake studies. [^125I]6a–d (37 kBq, 74 TBq/mmol) in 0.1 mL of saline was injected intravenously into tumor-bearing mice via the lateral tail vein. At 1 or 24 h after administration, the animals were sacrificed. Samples of tumor were excised and weighed. Radioactivity was measured using a well-type NaI(Tl) scintillation gamma counter. The results were expressed in terms of percentage of injected dose per gram of tumor.

[5] = system: A431 tumor; assay type: in vivo, balb/c nude mice; details: for Blood radioactivity / Brain radioactivity / Heart radioactivity / Kidney radioactivity / Liver radioactivity / Lung radioactivity / Muscle radioactivity / Pancreas radioactivity / Spleen radioactivity / Stomach radioactivity / Tumor radioactivity: A-431 tumor-bearing mice, i.v.
Method: The animals were euthanized 1, 6, 12 or 24 h after injection of the radioligands (37 kBq, 74 TBq/mmol in 0.1 mL saline), and the distributions were studied as described above.
In particular, the radioactivity accumulated in the liver 24 h after injection was approximately 1/50 of the radioactivity 1 h after injection. Thus, tumor-to-organ ratios for [^125I]PYK 24 h after injection had desirable values (Fig. 3b: tumor to lung: 8.5, tumor to kidney: 4.3, tumor to liver: 3.0) for tumor diagnostic imaging.

[6] = A431 tumor-bearing mice, 24 h after injection

Chain of EGFR-TK in A431 cell membranes (P00533 25-1210): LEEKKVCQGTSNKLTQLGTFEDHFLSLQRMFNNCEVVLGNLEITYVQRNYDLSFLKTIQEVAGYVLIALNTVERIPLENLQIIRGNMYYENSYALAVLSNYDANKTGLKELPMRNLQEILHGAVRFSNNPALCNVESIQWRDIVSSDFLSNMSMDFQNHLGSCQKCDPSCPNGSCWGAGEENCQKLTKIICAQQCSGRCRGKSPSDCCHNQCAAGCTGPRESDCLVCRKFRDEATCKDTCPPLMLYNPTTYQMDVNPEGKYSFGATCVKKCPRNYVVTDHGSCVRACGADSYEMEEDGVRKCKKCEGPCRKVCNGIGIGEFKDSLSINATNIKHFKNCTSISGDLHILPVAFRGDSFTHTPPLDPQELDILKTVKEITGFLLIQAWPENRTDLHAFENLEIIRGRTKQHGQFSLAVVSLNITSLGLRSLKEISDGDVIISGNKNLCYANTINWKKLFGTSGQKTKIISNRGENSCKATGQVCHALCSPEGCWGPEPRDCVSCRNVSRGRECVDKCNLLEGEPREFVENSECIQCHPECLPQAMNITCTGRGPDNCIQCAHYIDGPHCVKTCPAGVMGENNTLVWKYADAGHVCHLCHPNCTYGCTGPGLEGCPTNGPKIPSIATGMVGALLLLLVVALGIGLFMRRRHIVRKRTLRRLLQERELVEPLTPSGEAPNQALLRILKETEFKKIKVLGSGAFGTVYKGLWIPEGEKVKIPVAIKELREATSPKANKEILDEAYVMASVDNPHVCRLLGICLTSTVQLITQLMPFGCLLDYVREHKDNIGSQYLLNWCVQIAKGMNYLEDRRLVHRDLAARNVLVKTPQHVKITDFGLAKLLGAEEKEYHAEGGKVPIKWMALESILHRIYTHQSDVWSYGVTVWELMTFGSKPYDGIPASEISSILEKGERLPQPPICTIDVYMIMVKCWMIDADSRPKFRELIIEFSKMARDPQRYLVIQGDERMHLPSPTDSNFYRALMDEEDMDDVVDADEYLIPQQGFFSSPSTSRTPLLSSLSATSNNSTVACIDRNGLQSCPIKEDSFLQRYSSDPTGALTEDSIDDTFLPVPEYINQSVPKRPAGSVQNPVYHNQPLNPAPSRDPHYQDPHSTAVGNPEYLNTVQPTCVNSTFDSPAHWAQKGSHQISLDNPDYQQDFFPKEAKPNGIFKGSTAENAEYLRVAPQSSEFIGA

Structure (SMILES): CCOc1cc2ncnc(Oc3cccc([125I])c3)c2cc1OCCCN1CCOCC1 [[^125I]PYK]
- Bmax ([1]; A431 P2 membranes, Scatchard analysis): 27.0 ± 3.43 pmol/mg protein
- Hill's constant value ([1]; A431 membranes): 1.02
- binding to cell membranes [2]: undetectable
- SPECT images of tumors (in words) [3]: very clear
- tumor accumulation relative to [125I]PHY ([4]; 1 h post injection): approximately 8 folds
- retention in tumors (in words) [4, 6]: good retention
- accumulation in tumors ([4]; A431 tumor-bearing mice, 1 h post injection): 4.37 ± 0.65 % ID/g tissue
- accumulation in tumors [4, 6]: 1.53 ± 0.15 % ID/g tissue
- liver radioactivity 24 h after injection relative to 1 h after injection ([5]; A431 tumor-bearing mice): approximately 1/50
- tumor to kidney ratio [5, 6]: 4.3
- tumor to liver ratio [5, 6]: 3.0
- tumor to lung ratio [5, 6]: 8.5
- tumor/blood ratio [5, 6]: 57.0
- tumor/muscle ratio [5, 6]: 45.5
- Blood radioactivity ([5]; 1 h after injection): 0.80 ± 0.14 % injected dose per gram
- Brain radioactivity ([5]; 1 h after injection): 0.88 ± 0.07 % injected dose per gram
- Heart radioactivity ([5]; 1 h after injection): 1.19 ± 0.17 % injected dose per gram
- Kidney radioactivity ([5]; 1 h after injection): 7.40 ± 0.66 % injected dose per gram
- Liver radioactivity ([5]; 1 h after injection): 27.0 ± 1.29 % injected dose per gram
- Lung radioactivity ([5]; 1 h after injection): 4.14 ± 0.48 % injected dose per gram
- Muscle radioactivity ([5]; 1 h after injection): 1.34 ± 0.21 % injected dose per gram
- Pancreas radioactivity ([5]; 1 h after injection): 2.80 ± 0.19 % injected dose per gram
- Spleen radioactivity ([5]; 1 h after injection): 2.14 ± 0.04 % injected dose per gram
- Stomach radioactivity ([5]; 1 h after injection): 6.10 ± 2.08 % injected dose per gram
- Tumor radioactivity ([5]; 1 h after injection): 4.37 ± 0.65 % injected dose per gram
- Blood radioactivity ([5]; 6 h after injection): 0.20 ± 0.04 % injected dose per gram
- Brain radioactivity ([5]; 6 h after injection): 0.17 ± 0.03 % injected dose per gram
- Heart radioactivity ([5]; 6 h after injection): 0.50 ± 0.04 % injected dose per gram
- Kidney radioactivity ([5]; 6 h after injection): 3.53 ± 0.72 % injected dose per gram
- Liver radioactivity ([5]; 6 h after injection): 7.89 ± 1.45 % injected dose per gram
- Lung radioactivity ([5]; 6 h after injection): 2.29 ± 0.69 % injected dose per gram
- Muscle radioactivity ([5]; 6 h after injection): 0.39 ± 0.02 % injected dose per gram
- Pancreas radioactivity ([5]; 6 h after injection): 1.59 ± 0.25 % injected dose per gram
- Spleen radioactivity ([5]; 6 h after injection): 1.02 ± 0.18 % injected dose per gram
- Stomach radioactivity ([5]; 6 h after injection): 1.23 ± 0.60 % injected dose per gram
- Tumor radioactivity ([5]; 6 h after injection): 3.59 ± 0.73 % injected dose per gram
- Blood radioactivity ([5]; 12 h after injection): 0.06 ± 0.01 % injected dose per gram
- Brain radioactivity ([5]; 12 h after injection): 0.04 ± 0.01 % injected dose per gram
- Heart radioactivity ([5]; 12 h after injection): 0.14 ± 0.02 % injected dose per gram
- Kidney radioactivity ([5]; 12 h after injection): 1.06 ± 0.14 % injected dose per gram
- Liver radioactivity ([5]; 12 h after injection): 1.55 ± 0.32 % injected dose per gram
- Lung radioactivity ([5]; 12 h after injection): 0.61 ± 0.18 % injected dose per gram
- Muscle radioactivity ([5]; 12 h after injection): 0.09 ± 0.02 % injected dose per gram
- Pancreas radioactivity ([5]; 12 h after injection): 0.41 ± 0.06 % injected dose per gram
- Spleen radioactivity ([5]; 12 h after injection): 0.21 ± 0.01 % injected dose per gram
- Stomach radioactivity ([5]; 12 h after injection): 0.69 ± 0.51 % injected dose per gram
- Tumor radioactivity ([5]; 12 h after injection): 1.72 ± 0.42 % injected dose per gram
- Blood radioactivity ([5]; 24 h after injection): 0.03 ± 0.00 % injected dose per gram
- Brain radioactivity ([5]; 24 h after injection): 0.02 ± 0.00 % injected dose per gram
- Heart radioactivity ([5]; 24 h after injection): 0.05 ± 0.01 % injected dose per gram
- Kidney radioactivity ([5]; 24 h after injection): 0.36 ± 0.04 % injected dose per gram
- Liver radioactivity ([5]; 24 h after injection): 0.51 ± 0.35 % injected dose per gram
- Lung radioactivity ([5]; 24 h after injection): 0.18 ± 0.07 % injected dose per gram
- Muscle radioactivity ([5]; 24 h after injection): 0.03 ± 0.01 % injected dose per gram
- Pancreas radioactivity ([5]; 24 h after injection): 0.14 ± 0.02 % injected dose per gram
- Spleen radioactivity ([5]; 24 h after injection): 0.07 ± 0.03 % injected dose per gram
- Stomach radioactivity ([5]; 24 h after injection): 0.38 ± 0.19 % injected dose per gram
- Tumor radioactivity ([5]; 24 h after injection): 1.53 ± 0.15 % injected dose per gram
